According to patent publication US20240262832A1, “SMALL MOLECULE MODULATORS OF GLUCOCEREBROSIDASE ACTIVITY AND USES THEREOF” (Vanqua Bio, Inc., priority 2021, published 2024):

biological target: T1, GCase (Homo sapiens, UniProt P04062); test: activation of GCase in a live cell PFB assay in HELA cells; format: cell-based
T1 construct: endogenous in cells; host or cells: HeLa cells
T1 sequence (P04062 40-536): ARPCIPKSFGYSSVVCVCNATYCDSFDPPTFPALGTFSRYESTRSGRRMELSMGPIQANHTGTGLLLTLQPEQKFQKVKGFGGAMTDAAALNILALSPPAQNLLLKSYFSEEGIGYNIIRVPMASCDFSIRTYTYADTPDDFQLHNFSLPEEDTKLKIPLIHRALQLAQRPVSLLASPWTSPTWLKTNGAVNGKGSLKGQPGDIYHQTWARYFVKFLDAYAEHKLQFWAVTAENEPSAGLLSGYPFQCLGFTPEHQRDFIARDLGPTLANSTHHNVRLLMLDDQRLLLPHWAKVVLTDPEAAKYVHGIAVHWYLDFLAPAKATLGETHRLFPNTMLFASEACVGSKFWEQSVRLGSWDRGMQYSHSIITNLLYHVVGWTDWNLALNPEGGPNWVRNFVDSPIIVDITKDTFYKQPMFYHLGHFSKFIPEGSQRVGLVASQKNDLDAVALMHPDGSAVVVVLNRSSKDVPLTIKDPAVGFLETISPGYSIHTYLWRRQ

EC50 [µM] | SMILES
> 100 | CCN1CCC(NC(=O)N2CCC(COc3ccc(OC)cc3)CC2)C1 (centres unmarked) [Compound 434]
10 to 50 | O=C(Cc1csc(-c2ccccc2)n1)N1CCC(Oc2cccc(C(F)(F)F)n2)CC1 [Compound 402, 2-(2-Phenyl-1,3-thiazol-4-yl)-1-(4-{[6-(trifluoromethyl)pyridin-2-yl]oxy}piperidin-1-yl)ethan-1-one]
< 10 | CC1CCC(COc2cccnc2C(F)(F)F)CN1c1cnc2cnn(CC3COC3)c2n1 (centres unmarked) [Compound 118, 6-(2-Methyl-5-(((2-(trifluoromethyl)pyridin-3-yl)oxy)methyl)piperidin-1-yl)-1-(oxetan-3-ylmethyl)-1H-pyrazolo[3,4-b]pyrazine]
10 to 50 | O=C(Cc1ccc(OC(F)F)c(F)c1)N1CCCC(COc2ccccc2)C1 (centres unmarked) [Compound 198]
< 10 | FC(F)(F)COCCn1ncc2ncc(N3CCCC(COc4cccnc4C(F)(F)F)C3)nc21 (centres unmarked) [Compound 248, 1-(2-(2,2,2-Trifluoroethoxy)ethyl)-6-(3-(((2-(trifluoromethyl)pyridin-3-yl)oxy)methyl)piperidin-1-yl)-1H-pyrazolo[3,4-b]pyrazine]
> 100 | C[C@H]1CCN(c2cnc3cnn(CC(F)F)c3n2)C[C@H]1COc1cccnc1C(F)(F)F [Compound 48b, 1-(2,2-difluoroethyl)-6-((3S,4S)-4-methyl-3-(((2-(trifluoromethyl)pyridin-3-yl)oxy)methyl)piperidin-1-yl)-1H-pyrazolo[3,4-b]pyrazine]
10 to 50 | FC(F)Cn1ncc2ncc(N3CCC(COc4cccc(C(F)(F)F)n4)CC3)nc21 [Compound 328, 2-({1-[1-(2,2-Difluoroethyl)-1H-pyrazolo[3,4-b]pyrazin-6-yl]piperidin-4-yl}methoxy)-6-(trifluoromethyl)pyridine]
10 to 50 | O=C(Cc1cc(Cl)cs1)N1CCCC(COc2ccccc2)C1 (centres unmarked) [Compound 161]
10 to 50 | FC(F)Cn1ncc2ncc(N3CCCC(F)(COc4cccnc4C(F)(F)F)C3)nc21 (centres unmarked) [Compound 35, 3-({1-[1-(2,2-Difluoroethyl)-1H-pyrazolo[3,4-b]pyrazin-6-yl]-3-fluoropiperidin-3-yl}methoxy)-2-(trifluoromethyl)pyridine]
< 10 | O=C(N1CCC(COc2cccc(C(F)(F)F)n2)C1)C1(c2ccccc2)CCOCC1 (centres unmarked) [Compound 6]
< 10 | O=C(C1CC1)N1CCC(c2cncc(N3CCCC(COc4ccccc4C(F)(F)F)C3)n2)CC1 (centres unmarked) [Compound 113, Cyclopropyl(4-(6-(3-((2-(trifluoromethyl)phenoxy)methyl)piperidin-1-yl)pyrazin-2-yl)piperidin-1-yl)methanone]
10 to 50 | COC(C(=O)N1CCCC(COc2ccccc2)C1)c1ccc(Cl)cc1 (centres unmarked) [Compound 153]
< 10 | C[C@@H](Oc1cccnc1C(F)(F)F)[C@H]1CCCN(c2cncc(-c3nncs3)n2)C1 [Compound 45b, 2-(6-((S)-3-((R)-1-((2-(trifluoromethyl)pyridin-3-yl)oxy)ethyl)piperidin-1-yl)pyrazin-2-yl)-1,3,4-thiadiazole]
> 100 | COc1ccc(OCC2CCN(C(=O)Cn3cnnn3)CC2)cc1 [Compound 484]
50 to 100 | O=C(c1cnn[nH]1)N1CCC(COc2ccc3c(c2)CCC3)CC1 [Compound 423]
< 10 | COC1CC(COc2cccnc2C(F)(F)F)CN(c2cnc3cnn(CC(F)F)c3n2)C1 (centres unmarked) [Compound 291, 1-(2,2-Difluoroethyl)-6-(3-methoxy-5-(((2-(trifluoromethyl)pyridin-3-yl)oxy)methyl)piperidin-1-yl)-1H-pyrazolo[3,4-b]pyrazine]

EC50 [µM] | SMILES
< 10 | COc1ccc(OCC2CCN(c3nccc(N4CCCC(O)C4)n3)CC2)cc1 (centres unmarked) [Compound 424]
> 100 | CC(=O)N1CCC(c2cc3nc(N4CCCC(COc5ccccc5)C4)cnc3n2C)CC1 (centres unmarked) [Compound 41, 1-(4-{5-Methyl-2-[3-(phenoxymethyl)piperidin-1-yl]-5H-pyrrolo[2,3-b]pyrazin-6-yl}piperidin-1-yl)ethan-1-one]
10 to 50 | O=C(c1ccc2ccn(CC3COC3)c2c1)N1CCC[C@H](CCc2ccccc2C(F)(F)F)C1 [Compound 18, 1-[(oxetan-3-yl)methyl]-6-[(3S)-3-{2-[2-(trifluoromethyl)phenyl]ethyl}piperidine-1-carbonyl]-1H-indole]
> 100 | COc1ccc(OCC2CCN(Cc3cc(C)no3)CC2)cc1 [Compound 425]
< 10 | C[C@H]1C[C@@H](COc2cccnc2C(F)(F)F)CN(c2cnc3cnn(CC4COC4)c3n2)C1 (single isomer, unassigned) [Compound 233b]
10 to 50 | O=C(c1ccc2cc[nH]c2c1)N1C[C@@H]2[C@@H](COc3cccc(C(F)(F)F)n3)[C@@H]2C1 [Compound 74, 6-[(1R,5S,6S)-6-({[6-(trifluoromethyl)pyridin-2-yl]oxy}methyl)-3-azabicyclo[3.1.0]hexane-3-carbonyl]-1H-indole]
10 to 50 | O=c1cc(-c2ccccc2)cc(N2CCC[C@H](COc3cccnc3C(F)(F)F)C2)[nH]1 [Compound 300, (S)-4-Phenyl-6-(3-(((2-(trifluoromethyl)pyridin-3-yl)oxy)methyl)piperidin-1-yl)pyridin-2(1H)-one]
10 to 50 | Cc1ccccc1OCC1CCCN(c2cnc3cnn(-c4nncs4)c3n2)C1 (centres unmarked) [Compound 23, 2-(6-(3-((o-Tolyloxy)methyl)piperidin-1-yl)-1H-pyrazolo[3,4-b]pyrazin-1-yl)-1,3,4-thiadiazole]
< 10 | O=C(N1CCCC(COc2ccccc2)C1)C1(c2cnc(-c3ccccc3)s2)CCOCC1 (centres unmarked) [Compound 279, (3-(Phenoxymethyl)piperidin-1-yl)(4-(2-phenylthiazol-5-yl)tetrahydro-2H-pyran-4-yl)methanone]
10 to 50 | O=C(C(c1ccccc1)c1ccccc1)N1CCC(Oc2ccc(C(F)(F)F)cn2)CC1 [Compound 387]
10 to 50 | O=C(c1ccc2c(c1)CCCC2)N1CCC(Oc2ccccc2)CC1 [Compound 407, 4-Phenoxy-1-(5,6,7,8-tetrahydronaphthalene-2-carbonyl)piperidine]
10 to 50 | Cc1ccccc1OCC1CCCN(C(=O)c2c(C3CC3)n(-c3ccccc3)c3nccnc23)C1 (centres unmarked) [Compound 255, (6-cyclopropyl-5-phenyl-5H-pyrrolo[2,3-b]pyrazin-7-yl)(3-((o-tolyloxy)methyl)piperidin-1-yl)methanone]
10 to 50 | O=C(Cc1csc(-c2ccccc2)n1)N1CCC(Oc2ccnc(C(F)(F)F)c2)CC1 [Compound 399, 2-(2-Phenyl-1,3-thiazol-4-yl)-1-(4-{[2-(trifluoromethyl)pyridin-4-yl]oxy}piperidin-1-yl)ethan-1-one]
10 to 50 | O=C(c1ccc2cc[nH]c2c1)N1CCC(Oc2ncccc2C(F)(F)F)CC1 [Compound 321, (1H-Indol-6-yl)(4-((3-(trifluoromethyl)pyridin-2-yl)oxy)piperidin-1-yl)methanone]
10 to 50 | FC(F)Cn1ncc2ncc(N3CCC(COc4ncccc4C(F)(F)F)CC3)nc21 [Compound 313, 1-(2,2-Difluoroethyl)-6-(4-(((3-(trifluoromethyl)pyridin-2-yl)oxy)methyl)piperidin-1-yl)-1H-pyrazolo[3,4-b]pyrazine]
10 to 50 | C[C@H]1C[C@H](COc2cccnc2C(F)(F)F)CN(c2cnc3cnn(CC(F)F)c3n2)C1 [Compound 100, 1-(2,2-Difluoroethyl)-6-((3S,5S)-3-methyl-5-(((2-(trifluoromethyl)pyridin-3-yl)oxy)methyl)piperidin-1-yl)-1H-pyrazolo[3,4-b]pyrazine]
